Entries after “also recorded” stand apart in the source; their conditions may differ. Square brackets hold non-standard residues; d marks the D form. Ends that are not written are not given here. Nva = CCC[C@H](N)C(=O)O
Assays:
[1] = test system: native epitope coated cells; assay: pCTLR2 prime, PRAME peptide boost, in vivo cytotoxicity (CFSE); parameters: species or system HHD transgenic mice
[2] = biological target: HLA-A*0201 (Homo sapiens, UniProt P04439, D140Y/D185E/D98H/E176V/E277Q/G131W/G231S/I119V/I121R/I166T/I218V/L300P/L318F/N151K/N90K/P208A/P217A/Q86G/Q94H/R138H/R169H/T345S); assay: iTopia off-rate assay (T1/2); type: binding; settings: PRAME425-433 and analogs
Procedure: Avidin-coated microtiter plates containing class I monomer loaded with a so-called placeholder peptide were used to evaluate peptide binding, affinity and off-rate. […] Assay buffers, anti-MHC-FITC mAb and beta2-microglobulin and control peptides were also supplied with the kits.
The plates were then incubated on the allele-specific monomer plates at 37° C. The plates were measured at multiple time points (0, 0.5, 1, 1.5, 2, 4, 6 and 8 hrs) for relative fluorescence intensity. The time required for 50% of the peptide to dissociate from the MHC monomer is defined as the T1/2 value (hrs).
The binding and offrate (T1/2) was determined for six native epitopes and their analogs which were designed to enhance the immune response.

[3] = test system: T cells specific for the wild-type NY-ESO-1157-165 epitope; assay: Cross-reactivity and functional avidity of NY-ESO-1 157-165 analogs (IFN-gamma); type: cell-based, HHD transgenic mice
Source text: A methodology was devised to allow rapid and rational screening of peptide analogs in a fashion coherent with proposed methods of use and modeling the overall immunologic properties (Kon and Koff relative to MHC interaction and TCR binding properties in an integrated fashion). In some instances, the method included generating T cell lines against a natural (non-mutated) epitope (SSX-241-49), and using an immunization strategy potent enough to generate a useful response in transgenic mice carrying human MHC (such as the A2 allele). Peptide analogs were interrogated ex vivo in the presence of competent APCs and the functional impact of T cells specific for natural (non-mutated) epitopes measured. The evaluation was done at various concentrations of analog, because the expected effect was biphasic in the case of cross reactive peptides (activating at limited concentrations and inhibiting at higher concentrations, due to antigen-induced cell death, AICD). Measurement of the following three parameters were used to define basic and useful characteristics of peptide analogs: • 1. […]
At 7 days after the last boost, the mice were sacrificed and a suspension of splenocytes prepared at 5×10^6 […] cells/ml in complete HL-1 medium. […] The supernatant was harvested and the concentration of IFN-gamma assessed by standard methods such as ELISA. […]

[4] = test system: 624.38 cells; assay: pSEM prime, Tyrosinase peptide boost, ex vivo cytotoxicity against human tumor cells; type: in vivo, HHD transgenic mice
Procedure: HHD transgenic mice (n=4/group) were immunized (according to the general protocol in FIG. 40) with plasmid (pSEM) expressing the Tyrosinase369-377 epitope by direct inoculation into the inguinal lymph nodes of 25 μg of plasmid in 25 μl of PBS per lymph node at day 0, 3, 14 and 17. […] One week after the boost, splenocytes were stimulated ex vivo with the native Tyrosinase369-377 peptide and assayed against ^51Cr-labeled human tumor cells (624.38 cells) at various E:T ratios. […] Together with the preceding example, this observation illustrates the usefulness of complementing more stringent assays (in vivo cytotoxicity and tetramer staining) with more sensitive assays (ex vivo cytotoxicity after in vitro stimulation) to outline potentially useful analogs.

[5] = test system: T cells that recognized native PSMA288-297 peptide; assay: Peptide immunization with PSMA analogs, IFN-gamma ELISPOT against native peptide; type: in vivo, HHD transgenic mice; settings: peptide + pI:C intranodal immunization
Procedure: Groups of HHD transgenic mice (n=8) were immunized with peptide (natural epitope PSMA288-297, or analogs bearing substitutions at primary or secondary anchor residues) by direct inoculation into the inguinal lymph nodes, with 25 μg in 25 μl of PBS+12.5 μg of pI:C to each lymph node at day 0, 3, 14 and 17.
Mice were sacrificed at 10 days after the last boost, and splenocytes prepared and assessed for IFN-γ production by ELISPOT analysis. […] At 48 hours after incubation, the assay was developed and the frequency of cytokine-producing T cells that recognized native PSMA288-297 peptide was automatically counted. The data is represented in FIG. 22 as the number of spot forming colonies/well (mean of triplicates±SD). […] To the extent that the poor immunogenicity of the native epitope reflects tolerance, the improved activity of these analogs represents tolerance breaking.

[6] = test system: T cells that recognized the PSMA288-297 peptide; assay: Plasmid prime, PSMA peptide boost, IFN-gamma ELISPOT; type: in vivo, HHD transgenic mice; settings: versus natural peptide boost
Procedure: Two groups of HHD transgenic mice (n=8) were immunized with plasmid expressing PSMA288-297 by direct inoculation into the inguinal lymph nodes with 25 μg in 25 μl of PBS to each lymph node at day 0, 3, 14 and 17. This was followed by two peptide boosts (25 μg) at day 28 and 31 with either the natural peptide or the I297V analog.
Mice were sacrificed at 10 days after the last boost, and splenocytes prepared and assessed for IFN-γ production by ELISPOT analysis. […] At 48 hours after incubation, the assay was developed and the frequency of cytokine-producing T cells that recognized the PSMA288-297 peptide was automatically counted. The data is represented in FIG. 23 as frequency of specific T cells normalized to 0.5 million responder cells (mean of triplicates+SD).

[7] = test system: PSMA+ A2+ LnCap cells; assay: PSMA immunization, ex vivo cytotoxicity against human tumor cells; type: in vivo, HHD transgenic mice
Procedure: HHD transgenic mice (n=4) were immunized with PSMA288-297 peptide (25 μg in 25 μl of PBS, plus 12.5 μg of pI:C to each lymph node) at day 0, 3, 14 and 17. One week after the boost, splenocytes were stimulated ex vivo with the native PSMA288-297 peptide and tested against ^51Cr-labeled human tumor cells (PSMA^+ A2^+ LnCap cells, or as negative control, LnCap cells coated with MHC class I-blocking antibody) at various E:T ratios.
HHD transgenic mice (n=4) were immunized with plasmid expressing the PSMA288-297 epitope by direct inoculation into the inguinal lymph nodes with 25 μg in 25 μl of PBS to each lymph node at day 0, 3, 14 and 17. This was followed by two peptide boosts (same amount) at day 28 and 31, with the analog I297V. One week after the boost, splenocytes were stimulated ex vivo with the native PSMA288-297 peptide and tested overnight against ^51Cr-labeled human tumor cells (Lncap, A2^+ PSMA^+; or 624.38 A2^+ PSMA^− or control 624.28 cells A2^− PSMA^−) at various E:T ratios.

[8] = test system: 624.38 melanoma cells; assay: Plasmid prime, SSX-2 peptide boost, ex vivo cytotoxicity against human tumor cells; type: in vivo, mice; settings: ex vivo after boost
Procedure: Eight groups of mice (n=4) were immunized with plasmid expressing SSX-241-49 natural epitope by direct inoculation into the inguinal lymph nodes with 25 μg in 25 μl of PBS/each lymph node at day 0, 3, 14 and 17. This was followed by two additional peptide boosts (similar amount) at day 28 and 31, using a negative control peptide (Melan A 26-35 “EAA”), natural peptide or analogs as shown in FIG. 9.

[9] = test system: T cell lines against a natural (non-mutated) epitope (SSX-241-49); assay: Cross-reactivity and functional avidity: IFN-gamma from T cell lines against natural SSX-2 41-49 epitope; type: cell-based, HHD transgenic mice; settings: IFN-gamma from T cell line raised against native SSX-2 41-49; native = 1, lower = more active;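 note: peptide analogs tested ex vivo with competent APCs, IFN-gamma in supernatant measured by ELISA, readouts include minimal triggering concentration, peak effect and concentration at peak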
[10] = test system: 51Cr-labeled target cells (T2 cells); assay: Plasmid prime, SSX-2 peptide boost, ex vivo 51Cr cytotoxicity against T2 target cells; type: in vivo, mice; settings: peptide as boost agent after plasmid; 51Cr T2 targets
Procedure: Three groups of mice (n=4) were immunized with a plasmid expressing SSX-241-49 natural epitope by direct inoculation into the inguinal lymph nodes with 25 μg in 25 μl of PBS/each lymph node at day 0, 3, 14 and 17. This was followed by two additional peptide boosts (similar amount) at day 28 and 31. One week after the boost, splenocytes were stimulated ex vivo with SSX-241-49 natural peptide and tested against ^51Cr-labeled target cells (T2 cells) at various E:T ratios (FIG. 8). […] This correlated with the binding and stability parameters determined by ex vivo experimentation.

[11] = test system: target cells coated with natural peptide; assay: Plasmid prime, SSX-2 peptide boost, in vivo cytotoxicity (CFSE); parameters: species or system HHD mice; settings: spleen and blood; targets coated with 20 μg/ml and 1 μg/ml natural peptide
Procedure: Eight groups of mice (n=4) were immunized with plasmid expressing SSX-241-49 natural epitope, by direct inoculation into the inguinal lymph nodes with 25 μg in 25 μl of PBS/each lymph node at day 0, 3, 14 and 17. This was followed by two additional peptide boosts (similar amount) at day 28 and 31, using a negative control peptide (Melan A 26-35 “EAA”), natural peptide or analogs as shown in FIG. 9.
To evaluate the in vivo response against natural peptide, splenocytes were isolated from littermate control HHD mice and incubated with 20 μg/mL or 1 μg/ml of natural peptide for 2 hours. These cells were then stained with CFSE^hi fluorescence (4.0 μM or 1 μM for 15 minutes) and intravenously co-injected into immunized mice with an equal number of control splenocytes stained with CFSE^lo fluorescence (0.4 μM). Eighteen hours later the specific elimination of target cells was measured by removing spleen and PBMC from challenged animals and measuring CFSE fluorescence by flow cytometry. The relative depletion of the populations corresponding to peptide loaded splenocytes was calculated relative to the control (unloaded) population and expressed as % specific lysis. FIGS. 10 (spleen) and 11 (blood) show the in vivo cytotoxicity elicited by the regimens described in FIG. 7.

Molecule: S425F: PRAME425-433 analog with Phe for Ser at P1 (FLLQHLIGL) [Peptide S425F]
- in vivo cytotoxicity against native epitope, in words [1]: capable of expanding the immunity against the native epitope
- half time of dissociation [2]: 17.7 h

Molecule: L158V: NY-ESO-1 157-165 analog with V for L at position 158 (SVLMWITQC; UniProt P78358 157-165, looked up, variant L158V) [Peptide L158V]
- cross-reactivity / activity relative to wild-type, in words [3]: partial retention of activity

Molecule: YVDGTMSQNva (YVDGTMSQ[Nva]) [M370V V377Nva]
- ex vivo cytotoxicity against 624.38 cells, in words [4]: robust cytotoxicity against 624.38 cells

Molecule: YMDGTMSQV [Tyrosinase 369-377, reference compound]
- ex vivo cytotoxicity against 624.38 cells, in words [4]: robust cytotoxicity against 624.38 cells

Molecule: GLPSIPVHPV [PSMA 288-297(I297V)]
- IFN-γ ELISPOT response against native epitope, in words [5]: increased priming of immune responses against the native epitope
- frequency of native epitope-specific T cells (ELISPOT), in words [6]: considerably higher
- ex vivo cytotoxicity against PSMA+ human tumor cells, in words [7]: cytotoxic immunity against a PSMA^+ human tumor line; also recorded: effective in mediating cytotoxicity against LNCAP

Molecule: CC[C@H](C)[C@H](NC(=O)[C@H](CCCCN)NC(=O)[C@H](CCC(=O)O)NC(=O)[C@H](CO)NC(=O)[C@@H](NC(=O)[C@@H](N)CCCCN)C(C)C)C(=O)N[C@@H](Cc1ccccc1)C(=O)N[C@@H](Cc1ccc(O)cc1)C(=O)N[C@H](C(=O)O)C(C)C [SSX2 41-49 (A42V)]
- cytotoxicity against human tumor cells, in words [8]: increased cytotoxicity against human tumor cells
- Cross-reactivity and fct avidity (native to analogs)* [9]: 0.03
- response against target cells expressing the natural peptide [10]: higher response against target cells expressing the natural peptide
- in vivo cytotoxicity (% specific lysis), in words [11]: increased activity relative to the natural peptide

From patent publication US7605227B2, “Melanoma antigen peptide analogues” (MannKind Corporation, priority 2005, dated 2009)
